# Values joined by “and” are separate entries in the source; they are usually repeats but may differ in a detail not shown here. Equal entries are not always repeated. “Also recorded” adds a separate entry of the source. Where two headings read alike, the source gives them in different places.
# Experiments:
# Assay type in all cases: cell-based, human
# SMMC-7721 = assay: MTS cell viability assay, SMMC-7721; conditions: liver cancer cell line SMMC-7721, MTS, 48 h; for IC50: read-out: IC50 (±SD) SMMC-7721
# Procedure: (§1) The effects of the extracts and isolated saponins on cell growth were evaluated by the MTS assay (3-(4,5-dimethylthiazol-2-yl)-5(3-carboxymethoxyphenyl)-2-(4-sulfopheny)-2H-tetrazolium; Promega, Madison, WI, United States) on human tumor cell lines ([Mosmann, 1983]; [Cory et al., 1991]; [Malich et al., 1997]). In a test experiment of cell inhibition, the cell inhibition effects of six crude extracts (100 μg/mL) and six isolated saponins (40 μM) were roughly measured to ascertain whether to measure the IC50 value by MTS assay.
# (§2) Each well of a 96-well plate (Multiskan Fc, Therm) was seeded with 100 μL cells at a density of 3,000–5,000 cells per well, with the cell suspension containing 10% (v/v) fetal bovine serum (DMEM or RMPI1640, Biological Industries, Kibbutz Beit-Haemek, Israel). After 12–24 h of inoculation and culture at 37°C, the extracts or saponins were added at the indicated concentrations after being dissolved in dimethyl sulfoxide (DMSO, Biological Industries, Kibbutz Beit-Haemek, Israel) in a final volume of 200 μL per well, each in triplicate. The six crude extracts were added at concentrations of 100, 20, 4, 0.8, and 0.16 μg/mL; the six isolated saponins were added at concentrations of 10, 5, 2.5, 1.25, 0.625, and 0.3125 μM. After culture for 48 h at 37°C, 20 μL of MTS solution and 100 μL of DMEM were added to each well; three blank wells were set aside with 20 μL MTS solution and 100 μL DMEM. After an incubation for another 2–4 h, the absorbance at 492 nm was measured. Cisplatin and Paclitaxel (MeilunBio) were used as a positive control in each experiment. The cell growth curve was drawn with the concentration as the abscissa and the cell survival rate as the ordinate. The IC50 value of each saponin was calculated by the two-point method ([Reed and Muench, 1938]).
# HepG2 = assay: MTS cell viability assay, HepG2; conditions: liver cancer cell line HepG2, MTS, 48 h; for IC50: read-out: IC50 (±SD) HepG2
# Procedure: as §1, §2
# SK-HEP-1 = assay: MTS cell viability assay, SK-HEP-1; conditions: liver cancer cell line SK-HEP-1, MTS, 48 h; for IC50: read-out: IC50 (±SD) SK-HEP-1
# Procedure: as §1, §2
# A549 = assay: MTS cell viability assay, A549; conditions: NSCLC cell line A549, MTS, 48 h; for IC50: read-out: IC50 (±SD) A549
# Procedure: as §1, §2
# LO2 = assay: MTS cell viability assay, normal liver cell LO2; conditions: normal liver cell LO2, MTS, read-out: IC50 (±SD) LO2
# Procedure: (§3) Three human liver cancer cell lines (SMMC-7721, HepG2, and SK-HEP-1) and the non-small-cell lung cancer (NSCLC) cell line A549 were obtained from ATCC (Manassas, VA, United States). Normal human cell lines (liver cell line LO2 and lung cell line BEAS-2B) were obtained from ATCC (Manassas, VA, United States). Cells were cultured in RMPI-1640 or DMEM medium (Biological Industries, Kibbutz Beit-Haemek, Israel) supplemented with 10% (v/v) fetal bovine serum (Biological Industries) at 37°C in a humidified atmosphere with 5% (v/v) CO2.
# as §1, §2
# BEAS-2B = assay: MTS cell viability assay, normal lung cell BEAS-2B; conditions: normal lung cell BEAS-2B, MTS, read-out: IC50 (±SD) BEAS-2B
# Procedure: as §3, §1, §2
# A549 cells [1] = assay: Cell cycle analysis (PI staining, flow cytometry), A549; conditions: A549, 24 h; saponins 1 and 5 at 0.5 μM, other four at 1 μM
# Procedure: (§4) Cell cycle distribution was determined by propidium iodide (PI, BD, Pharmingen) staining ([Kong et al., 2016]; [Wei et al., 2021]). Briefly, three cancer cell lines were cultured in six-well plates at a density of 3 × 10^5 cells per well for 24 h before treatment with each of the six isolated saponins at the indicated concentrations for 24 h. The cells were collected, centrifuged, and washed twice with ice-cold PBS. Cells were fixed in 70% (v/v) ice-cold ethanol at 4°C overnight and washed again in PBS twice. The cells were incubated with 100 μL RNase A at 37°C for 30 min in the dark, after which 400 μL PI was added to the cells with RNase A in the dark at 4°C for 15 min. The cell cycle stage was analyzed by flow cytometry (BD, FACSCelesta, United States) with FLOWJO software (FlowJo, Ashland, OR, United States).
# HepG2 cells [2] = assay: Cell cycle analysis (PI staining, flow cytometry), HepG2; conditions: HepG2, 24 h, 1 μM
# Procedure: as §4
# A549 cells [3] = assay: Apoptosis by annexin V-FITC/PI staining, A549; conditions: A549, saponins 5 μM, Figure 7
# Procedure: (§5) Double staining with annexin V-fluorescein isothiocyanate (FITC) and PI was used to determine the effects of the six saponins on cell apoptosis by flow cytometry ([Homburg et al., 1995]; [Vermes et al., 1995]; [Casciola-Rosen et al., 1996]). The effects of the six isolated saponins on apoptosis were determined using an annexin V-FITC apoptosis kit (BD, Pharmingen); the chemotherapy drug doxorubicin (DOX, Beyotime Institute of Biotechnology, Shanghai, China) was used as the positive control. Cells were cultured in six-well plates at a density of 3 × 10^5 cells per well for 24 h before being treated with each of the six isolated saponins at the indicated concentrations for 24 h. The cells were collected, centrifuged, and washed twice with ice-cold phosphate-buffered saline (PBS). The cells were stained with annexin V-FITC and PI for 15 min in the dark at room temperature before analysis by flow cytometry (BD, FACSCelesta, America). Annexin V-FITC^+ and PI^+ (Q2) were considered late-stage apoptotic cells, while annexin V-FITC^+ and PI^− (Q3) cells were considered early-stage apoptotic cells. Annexin V-FITC^– and PI^+ (Q1) were necrotic or mechanically damaged cells, and annexin V-FITC^– and PI^− (Q4) cells were healthy living cells.
# HepG2 cells [4] = assay: Apoptosis by annexin V-FITC/PI staining, HepG2; conditions: HepG2, saponins 5 μM, Figure 7
# Procedure: as §5
# SMMC-7721 cells = assay: Apoptosis by annexin V-FITC/PI staining, SMMC-7721; conditions: SMMC-7721, saponins 5 μM, Figure 7
# Procedure: as §5
Compound,IC50 (SMMC-7721; Homo sapiens),IC50 (HepG2; Homo sapiens),"IC50 (SK-HEP-1; Homo sapiens, SK-HEP1)",IC50 (A549; Homo sapiens),"IC50 (LO2; Homo sapiens, L02) [nM]",IC50 (BEAS-2B; Homo sapiens) [nM],cell cycle phase with increased proportion of cells compared to DMSO control (A549 cells [1]),"apoptosis rate (induction of apoptosis, in words) (A549 cells [3])","apoptosis rate (induction of apoptosis, in words) (HepG2 cells [4])",further results
"N.N.[Cl][Pt][Cl] [Cisplatin, reference compound]",,,,,,,,,,IC50 (±SD) SMMC-7721 (SMMC-7721): 5.05 ± 0.12 µg/mL; IC50 (SMMC-7721): 17800 ± 570 nM; IC50 (±SD) HepG2 (HepG2): 1.90 ± 0.13 µg/mL; IC50 (HepG2): 5670 ± 100 nM; IC50 (±SD) SK-HEP-1 (SK-HEP-1): 8.79 ± 0.49 µg/mL; IC50 (SK-HEP-1): 21000 ± 710 nM; IC50 (±SD) A549 (A549): 16.74 ± 0.68 µg/mL; IC50 (A549): 26100 ± 520 nM; IC50 (LO2): 13800 ± 480 nM; IC50 (BEAS-2B): > 40000 nM
"CC(=O)O[C@H]1C(=O)[C@@]2(C)[C@H]([C@H](OC(=O)c3ccccc3)[C@]3(O)C[C@H](OC(=O)[C@H](O)[C@@H](NC(=O)c4ccccc4)c4ccccc4)C(C)=C1C3(C)C)[C@]1(OC(C)=O)CO[C@@H]1C[C@@H]2O [Paclitaxel, reference compound]",0.12 µg/mL and 180 nM,< 0.01 µg/mL and < 10 nM,< 0.01 µg/mL and < 10 nM,< 0.01 µg/mL and < 10 nM,< 10,> 5000,,,,
"CC1CCC2(OC1)OC1CC3C4CC=C5CC(OC6OC(CO)C(OC7OC(CO)C(O)C7O)C(O)C6OC6OC(C)C(O)C(O)C6O)CCC5(C)C4CCC3(C)C1(O)C2C [saponin 2, pennogenin-3-O-α-L-arabinofuranosyl-(1→4)-[α-L-rhamnopyranosyl-(1→2)]-β-D-glycopyranoside]",1880 ± 70 nM,2140 ± 10 nM,1580 ± 80 nM,1250 ± 20 nM,2330 ± 100,4950 ± 40,S and G2/M phases,strong apoptosis,next,cell cycle phase with increased proportion of cells compared to DMSO control (HepG2 cells [2]): S and G2/M phases
"CC1CCC2(OC1)OC1CC3C4CC=C5CC(OC6OC(CO)C(OC7OC(C)C(O)C(O)C7O)C(O)C6OC6OC(C)C(O)C(O)C6O)CCC5(C)C4CCC3(C)C1C2C [saponin 3, diosgenin-3-O-α-L-rhamnopyranosyl-(1→2)-[α-L-rhamnopyranosyl-(1→4)]-β-D-glucopyranoside]",2560 ± 80 nM,3800 ± 50 nM,1800 ± 70 nM,1690 ± 40 nM,3780 ± 180,3070 ± 190,G0/G1 phase,,,increase of proportion of cells in S phase compared to DMSO control (HepG2 cells [2]): 27.5%
"CC1CCC2(OC1)OC1CC3C4CC=C5CC(OC6OC(CO)C(OC7OC(CO)C(O)C7O)C(O)C6OC6OC(C)C(O)C(O)C6O)CCC5(C)C4CCC3(C)C1C2C [saponin 4, diosgenin-3-O-α-L-arabinofuranosyl-(1→4)-[α-L-rhamnopyranosyl-(1→2)]-β-D-glucopyranoside]",720 ± 20 nM,1590 ± 30 nM,660 ± 40 nM,580 ± 10 nM,850 ± 10,1820 ± 90,increase in the proportion of cells at the G2/M phase,,,increase of proportion of cells in the G2/M phase compared to DMSO control (HepG2 cells [2]): 17.2%
"CC1CCC2(OC1)OC1CC3C4CC=C5CC(OC6OC(CO)C(OC7OC(C)C(OC8OC(C)C(O)C(O)C8O)C(O)C7O)C(O)C6OC6OC(C)C(O)C(O)C6O)CCC5(C)C4CCC3(C)C1(O)C2C [saponin 5, pennogenin 3-O-α-L-rhamnopyranosyl-(1→2)-[α-L-rhamnopyranosyl-(1→4)-α-L-rhamnopyranosyl-(1→4)]-β-D-glucopyranoside]",1200 ± 100 nM,1570 ± 10 nM,940 ± 60 nM,900 ± 10 nM,900 ± 20,940 ± 30,S phase,stronger apoptosis than the positive control DOX,highest apoptosis rate; also recorded: stronger apoptosis than the positive control DOX,"cell cycle phase with increased proportion of cells compared to DMSO control (HepG2 cells [2]): S and G2/M phases; apoptosis rate (induction of apoptosis, in words) (A549 cells [3]; listed as Saponin 5): strong apoptosis; apoptosis rate (induction of apoptosis, in words) (SMMC-7721 cells): substantial induction of apoptosis; also recorded: stronger apoptosis than the positive control DOX"
pennogenin-3-O-α-L-rhamnopyranosyl-(1→2)-[α-L-rhamnopyranosyl-(1→4)]-β-D-glucopyranoside [saponin 1],,,,,,,G2/M phase,stronger apoptosis than the positive control DOX,next and stronger apoptosis than the positive control DOX,"IC50 (SMMC-7721): 760 ± 30 nM; IC50 (HepG2): 1780 ± 10 nM; IC50 (SK-HEP-1): 900 ± 40 nM; IC50 (A549): 980 ± 10 nM; IC50 (LO2): 1790 ± 100 nM; IC50 (BEAS-2B): 1190 ± 10 nM; increase of proportion of cells in S phase compared to DMSO control (HepG2 cells [2]): 23.7%; apoptosis rate (induction of apoptosis, in words) (A549 cells [3]; listed as Saponin 1): most effective in inducing apoptosis; apoptosis rate (induction of apoptosis, in words) (SMMC-7721 cells): stronger apoptosis than the positive control DOX; apoptosis rate (induction of apoptosis, in words) (SMMC-7721 cells; listed as Saponin 1): most effective in inducing apoptosis; apoptosis rate (induction of apoptosis, in words) (HepG2 cells [4]; listed as Saponin 1): also effective"

# From paper PMC9911168, “Cytotoxic and pro-apoptotic effects of botanical drugs derived from the indigenous cultivated medicinal plant Paris polyphylla var. yunnanensis” (Frontiers in Pharmacology, 2023)
